Biological target: T1, Polyunsaturated fatty acid lipoxygenase ALOX15 (Oryctolagus cuniculus, UniProt P12530)
T1 sequence (P12530 whole entry): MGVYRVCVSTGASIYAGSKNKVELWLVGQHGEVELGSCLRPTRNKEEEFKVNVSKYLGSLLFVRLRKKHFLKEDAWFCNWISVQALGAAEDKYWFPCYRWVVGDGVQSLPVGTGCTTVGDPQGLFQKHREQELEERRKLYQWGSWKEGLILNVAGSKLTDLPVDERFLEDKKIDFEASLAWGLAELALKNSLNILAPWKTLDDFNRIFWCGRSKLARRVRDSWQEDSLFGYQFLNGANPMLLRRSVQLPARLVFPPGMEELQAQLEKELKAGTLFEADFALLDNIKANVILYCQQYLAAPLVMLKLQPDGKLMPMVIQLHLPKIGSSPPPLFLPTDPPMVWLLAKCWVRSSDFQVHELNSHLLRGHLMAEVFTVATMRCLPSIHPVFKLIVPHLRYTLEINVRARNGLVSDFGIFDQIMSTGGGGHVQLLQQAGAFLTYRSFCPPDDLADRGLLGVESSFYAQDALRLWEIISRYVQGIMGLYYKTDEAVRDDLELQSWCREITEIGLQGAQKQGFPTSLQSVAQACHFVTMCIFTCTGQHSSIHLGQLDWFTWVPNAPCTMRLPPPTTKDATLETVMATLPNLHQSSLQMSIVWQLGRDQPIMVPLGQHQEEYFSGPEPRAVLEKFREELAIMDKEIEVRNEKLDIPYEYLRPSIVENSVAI
Test: Enzyme Inhibition Assay
Method: The inhibitory activity of the compounds against purified 15-LO enzyme was determined using a standard colorimetric assay in which the lipid hydroperoxide product (13-hydroperoxyoctadecadienoic acid) oxidizes Fe2+. The Fe3+ forms a chromophore with xylenol orange that absorbs strongly at 560 nm.

COc1ccc(-c2nc(-c3cccs3)[nH]c2CCNS(=O)(=O)N(C)[C@@H]2CCN(c3ccc(Cl)c(Cl)c3)C2)cc1 [{[(3R)-1-(3,4-dichlorophenyl)pyrrolidin-3-yl](methyl)sulfamoyl}({2-[5-(4-methoxyphenyl)-2-(thiophen-2-yl)-1H-imidazol-4-yl]ethyl})amine]
IC50: 11 nM

CCCCCc1ccc(S(=O)(=O)NCCc2nc(-c3ccc(Cl)cc3)[nH]c2-c2ccc(OC)cc2)cc1 [N-{2-[2-(4-chlorophenyl)-5-(4-methoxyphenyl)-1H-imidazol-4-yl]ethyl}-4-pentylbenzene-1-sulfonamide]
IC50: 210 nM

— BindingDB's records for doi:10.1016/j.bmcl.2007.07.011 (Bristol Myers Squibb, 2007)
